Test system: anti-CD28 scFv
Assay: Phage binding ELISA (panning) of clonal phage on anti-CD28 scFv, with or without CD28 soluble protein
Conditions: clonal phage supernatant; background signal
Experimental: Clonal phage were harvested as crude supernatants and screened via standard enzyme linked immunosorbent assays (ELISAs). […] Prior to the addition of clonal phage, wells were incubated with blocking buffer and CD28 soluble protein or blocking buffer alone. Without washing or aspirating, clonal phage supernatants were then added to the wells and incubated for a short time. Wells were then washed followed by detection of bound phage using a horse radish peroxidase conjugated anti-M13 antibody. Clonal phage of interest were then sent for sequence analysis.

Row | Substance | Phage binding ELISA Backgroud signal
1 | Phage-204 (MDWCPRHMWNVCFS) | 0.067
2 | Phage-205 (MDWCPTDMWHHCFL) | 0.061
3 | Phage-206 (IHWCPINMWDKCYN) | 0.060
4 | Phage-207 (MDWCPRAMWHECFY) | 0.069
5 | Phage-208 (MDWCPTDMWIVCFA) | 0.363
6 | Phage-209 (IDWCPQDMWFYCFN) | 0.069
7 | Phage-210 (MDWCPRDMWFECFA) | 0.076
8 | Phage-211 (MDWCPRNMWTVCFL) | 0.060
9 | Phage-212 (MDWCPRAMWDKCFF) | 0.073
10 | Phage-213 (MNWCPSYMWDQCFA) | 0.125
11 | Phage-214 (MDWCPTYMWSECFN) | 0.086
12 | Phage-215 (MDWCPRYMWNECFN) | 0.064
13 | Phage-216 (MDWCPMNMWYQCFN) | 0.110
14 | Phage-217 (MDWCPWDMWDKCFN) | 0.101
15 | Phage-218 (TFGCPTTMWNRCFA) | 0.117
16 | Phage-219 (NYWCPSSMWNRCLH) | 0.295
17 | Phage-220 (FDFCPTTMWTYCQH) | 0.084
18 | Phage-221 (TTWCPTSMWLHCFD) | 0.096
19 | Phage-222 (MDWCPRDQWHNCFN) | 0.075
20 | Phage-223 (MDWCPRDRWVDCFF) | 0.066
21 | Phage-224 (MDWCPKDRWNDCYF) | 0.078

Row | Substance | Phage binding ELISA Backgroud signal
22 | Phage-225 (MDWCPRDRWADCFF) | 0.069
23 | Phage-226 (MDWCPRDRWIDCFN) | 0.218
24 | Phage-228 (ITWCHVISGLECWN) | 0.076
25 | Phage-229 (VPWCQIISGLECLT) | 0.076
26 | Phage-230 (APWCQIISGLECLT) | 0.080
27 | Phage-231 (VPWCLIISGLDCLN) | 0.455
28 | Phage-232 (MDWCARFVGYGCLD) | 0.948
29 | Phage-233 (MTWCPTSFWNRCLD) | 0.142
30 | Phage-234 (MDWCPRALWFECFF) | 0.111
31 | Phage-235 (MDWCPRYLWHECFS) | 0.063
32 | Phage-236 (MDWCPRDLWNLCFF) | 0.084
33 | Phage-237 (MDWCPSYLWHECFF) | 0.067
34 | Phage-238 (MDWCPPYLWSECFA) | 0.539
35 | Phage-239 (MDWCPRYLWHVCFN) | 0.187
36 | Phage-240 (MDWCPRTLWHVCFN) | 0.317
37 | Phage-241 (MDWCPRHLWHECYS) | 0.066
38 | Phage-242 (MDWCPKHLWTECFA) | 0.098
39 | Phage-243 (MDWCPRHLWYECFN) | 0.063
40 | Phage-244 (MDWCPRYLWHECFD) | 0.071
41 | Phage-245 (MDWCPRNLWHLCFA) | 0.082
42 | Phage-246 (MDWCPKHLWNKCFN) | 0.075

Row | Substance | Phage binding ELISA Backgroud signal
43 | Phage-247 (MDWCPRFMWAECFN) | 0.073
44 | Phage-248 (MDWCPRNMWHHCFD) | 0.205
45 | Phage-249 (MDWCPSDMWAHCYN) | 0.191
46 | Phage-250 (MDWCPKVMWHYCFA) | 0.136
47 | Phage-251 (MDWCPRFMWSECFS) | 0.092
48 | Phage-252 (MDWCPRHMWINCFA) | 0.091
49 | Phage-253 (MVGCATSMWNRCLT) | 0.256
50 | Phage-254 (MDWCPRYLWSECFA) | 0.078
51 | Phage-255 (MDWCPRHLWSVCFN) | 0.064
52 | Phage-256 (MDWCPFDLWHVCYN) | 0.089
53 | Phage-257 (MDWCPRFLWHECFN) | 0.079
54 | Phage-258 (MDWCPRSLWHVCFN) | 0.098
55 | Phage-259 (MDWCPRNLWHACFN) | 0.071
56 | Phage-260 (MDWCPVFMWNECFN) | 0.079
57 | Phage-261 (MDWCPMFMWHECFN) | 0.102
58 | Phage-262 (MYWCATSMWNRCFV) | 0.248
59 | Phage-263 (MDWCPRHMWHECFA) | 0.074
60 | Phage-264 (MDWCPRHLWHVCFN) | 0.070
61 | Phage-265 (MDWCPRFMWDLCFA) | 0.270
62 | Phage-266 (VTSCPTTMWNRCFS) | 0.396

Source: patent publication US20230357447A1, “TUMOR ACTIVATED MULTISPECIFIC ANTIBODIES FOR TARGETING CD28 AND PD-L1 AND METHODS OF USE THEREOF” (Janux Therapeutics, Inc., priority 2022, published 2023)
